The structures appear in SMILES notation. Where two headings read alike, the source gives them in different places. Some results are limits rather than exact numbers.

Data set [1] has as its system brewer's yeast test in rat. Nature of the data set: analgesic activity, brewer's yeast test in rat (Winter et al. 1965). Format: in vivo. To be noted: read-out: Analgesic activity ED50. From the text:
(§1) The compounds show an outstanding analgesic activity, especially upon oral application versus the brewer's yeast test in rat as described by Winter et al. (J. Pharm. Exp. Ther., 150(1), 165-171, 1965). Also these compounds have shown anti-inflammatory activity especially upon oral application versus the Carrageenin test in rats as described by Winter et al. (Proc. Soc. Exp. Biol. Med., 111, 544-547, 1962). The results for the analgesic evaluation are expressed as ED50 and those for the anti-inflammatory evaluation expressed as the activity rate observed on administering the compounds at a dose of 5 mg/kg.

In the next data set the test system is Carrageenin test in rats. Description: anti-inflammatory activity, Carrageenin test in rats (Winter et al. 1962). To be noted: read-out: Antiinflammatory activity. Format: in vivo, rat.
Source text: as §1

The nature of data set [2]: acute oral toxicity LD50 in mice (Reed-Muench method modified by Pizzi). To be noted: mouse, in vivo; oral administration to mice; as free base. The source says: Moreover, the above compounds have shown a low toxicity which makes them useful in therapy. […] Evaluation was made according to the method by Reed-Muench as modified by Pizzi (Human & Biology, 22(3), 151-190, 1950) by oral administration to mice.

Where [3] appears, read: brewer's yeast test, rat, oral, as free base.
Setting [4] is: Carrageenin test, rat, oral, dose of 5 mg/kg, as free base.

By ED50 is commonly meant the midpoint of the dose-response relation. Take `CC(=O)Oc1ccccc1C(=O)O` [Acetylsalycilic acid, acetylsalicylic acid, reference compound]: in data set [1] (setting [3]), the ED50 came out at 73 mg/kg. For the same compound, the inhibition in vivo at 5 mg/kg in the data set with Carrageenin test in rats (Rattus norvegicus, po) was found to be 23.2%.
With `O=C(OCCN1CCN(c2cccc(C(F)(F)F)c2)CC1)c1ccccc1Nc1ccnc2cc(C(F)(F)F)ccc12` [Antrafenine, reference compound], the ED50 in data set [1] (Rattus norvegicus, po) amounted to 43 mg/kg. Further, the inhibition in vivo at 5 mg/kg with Carrageenin test in rats (Rattus norvegicus, po) came to 3.6%.
As usually defined, the LD50 is the dose expected to kill half of the subjects tested. `O=C(OCCN1CCCC1)c1ccccc1Nc1ccnc2cc(Cl)ccc12` [Example 1, 2-Pyrrolidinylethyl 2-(7-chloro-4-quinolyl)aminobenzoate]: the ED50 in data set [1] (setting [3]) was determined as 38 mg/kg. In the data set on Carrageenin test in rats (setting [4]), the inhibition in vivo at 5 mg/kg was determined as 35.6%. Besides, in data set [2], the LD50 was determined as 2000 mg/kg.
For the compound `O=C(OCCN1CCCC1)c1ccccc1Nc1ccnc2cc(C(F)(F)F)ccc12` [Example 2, 2-Pyrrolidinylethyl 2-(7-trifluoromethyl-4-quinolyl)aminobenzoate], the ED50 in data set [1] (setting [3]) amounted to 2.9 mg/kg. For the same compound, in the data set with Carrageenin test in rats (setting [4]), the inhibition in vivo at 5 mg/kg was found to be 38%. Besides, the LD50 in data set [2] came out at 630 mg/kg.
For `O=C(OCCN1CCCCC1)c1ccccc1Nc1ccnc2cc(Cl)ccc12` [Example 3, 2-Piperidinylethyl-2-(7-chloro-4-quinolyl)aminobenzoate], the ED50 in data set [1] (setting [3]) came to 67 mg/kg. Also, the inhibition in vivo at 5 mg/kg with Carrageenin test in rats (setting [4]) was 23.1%. This compound had an LD50 in data set [2] above 2000 mg/kg.
On to `O=C(OCCN1CCCCC1)c1ccccc1Nc1ccnc2cc(C(F)(F)F)ccc12` [Example 4, 2-Piperidinylethyl 2-(7-trifluoromethyl-4-quinolyl)aminobenzoate], for which, in data set [1] (setting [3]), the ED50 came out at 3 mg/kg. Also, in the data set on Carrageenin test in rats (setting [4]), the inhibition in vivo at 5 mg/kg is 23.2%. Besides, the 50% lethal dose (LD50) in data set [2] is 635 mg/kg.
In the case of `O=C(OCCN1CCCCCC1)c1ccccc1Nc1ccnc2cc(Cl)ccc12` [Example 5, 2-Homopiperidinylethyl 2-(7-chloro-4-quinolyl)aminobenzoate], in data set [1] (setting [3]), the ED50 was 5.4 mg/kg. For the same compound, the inhibition in vivo at 5 mg/kg with Carrageenin test in rats (setting [4]) amounted to 17.3%.
Taken in the same sequence, the figures for `O=C(OCCN1CCCCCC1)c1ccccc1Nc1ccnc2cc(C(F)(F)F)ccc12` [Example 6, 2-Homopiperidinylethyl 2-(7-trifluoromethyl-4-quinolyl)aminobenzoate] were 7 mg/kg and 27.9%.
The corresponding values for `O=C(OCCOCCN1CCCC1)c1ccccc1Nc1ccnc2cc(Cl)ccc12` [Example 7, 2-(2-Pyrrolidineethoxy)ethyl 2-(7-chloro-4-quinolyl)aminobenzoate] are 18.5 mg/kg and 5.1%.
Take `O=C(OCCOCCN1CCCC1)c1ccccc1Nc1ccnc2cc(C(F)(F)F)ccc12` [Example 8, 2-(2-Pyrrolidineethoxy)ethyl 2-(7-trifluoromethyl-4-quinolyl)aminobenzoate]: the ED50 in data set [1] (setting [3]) amounted to 14.7 mg/kg. Further, in the data set on Carrageenin test in rats (setting [4]), the inhibition in vivo at 5 mg/kg worked out at 26.2%.
Regarding `O=C(OCCOCCN1CCCCC1)c1ccccc1Nc1ccnc2cc(Cl)ccc12` [Example 9], the ED50 in data set [1] (setting [3]) amounted to 21.7 mg/kg. In addition, in the data set with Carrageenin test in rats (setting [4]), the inhibition in vivo at 5 mg/kg was 33.2%.
Taken in the same sequence, the figures for `O=C(OCCOCCN1CCCCCC1)c1ccccc1Nc1ccnc2cc(Cl)ccc12` [Example 11, 2-(2-Homopiperidineethoxy)ethyl 2-(7-chloro-4-quinolyl)aminobenzoate] were 13.3 mg/kg and 21.2%.
The corresponding values for `O=C(OCCOCCN1CCCCCC1)c1ccccc1Nc1ccnc2cc(C(F)(F)F)ccc12` [Example 12, 2-(2-Homopiperidineethoxy)ethyl 2-(7-trifluoromethyl-4-quinolyl)aminobenzoate] are 6.6 mg/kg and 28.8%.
For the compound `O=C(OCC1CCCCO1)c1ccccc1Nc1ccnc2cc(Cl)ccc12` (stereo not shown) [Example 14, 2-Tetrahydropyranylmethyl 2-(7-chloro-4-quinolyl)aminobenzoate], in data set [1] (setting [3]), the ED50 was 22 mg/kg. For the same compound, the inhibition in vivo at 5 mg/kg in the data set on Carrageenin test in rats (setting [4]) stood at 19.5%.
Regarding `O=C(OCC1CCCCO1)c1ccccc1Nc1ccnc2cc(C(F)(F)F)ccc12` (stereo not shown) [Example 15, 2-Tetrahydropyranylmethyl 2-(7-trifluoromethyl-4-quinolyl)aminobenzoate], the ED50 in data set [1] (setting [3]) worked out at 9.3 mg/kg. In addition, the inhibition in vivo at 5 mg/kg in the data set with Carrageenin test in rats (setting [4]) worked out at 26.1%.
`O=C(OCOCc1ccccc1)c1ccccc1Nc1ccnc2cc(Cl)ccc12` [Example 16, Benzyloxymethyl 2-(7-chloro-4-quinolyl)aminobenzoate]: the ED50 in data set [1] (setting [3]) was 6.3 mg/kg. Also, the inhibition in vivo at 5 mg/kg with Carrageenin test in rats (setting [4]) was 27.7%. The compound also came in with an LD50 in data set [2] above 8000 mg/kg.
As for `O=C(OCOCc1ccccc1)c1ccccc1Nc1ccnc2cc(C(F)(F)F)ccc12` [Example 17, Benzyloxymethyl 2-(7-trifluoromethyl-4-quinolyl)aminobenzoate], in data set [1] (setting [3]), the ED50 came to 64.5 mg/kg. The inhibition in vivo at 5 mg/kg with Carrageenin test in rats (setting [4]) was 30.5%.
With `O=C(OCOC(=O)c1ccccc1Nc1ccnc2cc(Cl)ccc12)c1ccccc1` [Example 18, Benzoyloxymethyl 2-(7-chloro-4-quinolyl)aminobenzoate], the ED50 in data set [1] (setting [3]) was 82.5 mg/kg. For the same compound, the inhibition in vivo at 5 mg/kg in the data set on Carrageenin test in rats (setting [4]) came out at 31%.
On to `O=C(OCOC(=O)c1ccccc1Nc1ccnc2cc(C(F)(F)F)ccc12)c1ccccc1` [Example 19, Benzoyloxymethyl 2-(7-trifluoromethyl-4-quinolyl)aminobenzoate], for which the ED50 in data set [1] (setting [3]) was found to be 3.8 mg/kg. Also, in the data set with Carrageenin test in rats (setting [4]), the inhibition in vivo at 5 mg/kg was 30.5%.
The corresponding values for `O=C(OC1OC(=O)c2ccccc21)c1ccccc1Nc1ccnc2cc(Cl)ccc12` (stereo not shown) [Example 20, 1(3H)-isobenzofuranone-3-yl 2-(7-chloro-4-quinolyl)aminobenzoate] are 71 mg/kg and 26.2%.
As for `O=C(OC1OC(=O)c2ccccc21)c1ccccc1Nc1ccnc2cc(C(F)(F)F)ccc12` (stereo not shown) [Example 21, 1(3H)-isobenzofuranone-3-yl 2-(7-trifluoromethyl-4-quinolyl)aminobenzoate], the ED50 in data set [1] (setting [3]) amounted to 26 mg/kg. Also, in the data set on Carrageenin test in rats (setting [4]), the inhibition in vivo at 5 mg/kg was determined as 38.4%.
Taken in the same sequence, the figures for `O=C(OCC(O)CO)c1ccccc1Nc1ccnc2c(C(F)(F)F)cccc12` (stereo not shown) [Floctafenine, reference compound] were 2.2 mg/kg and 21.6%.
`O=C(OCC(O)CO)c1ccccc1Nc1ccnc2cc(Cl)ccc12` (stereo not shown) [Glafenine, reference compound]: in data set [1] (Rattus norvegicus, po), the median effective dose (ED50) is 26.5 mg/kg. Moreover, the inhibition in vivo at 5 mg/kg in the data set on Carrageenin test in rats (Rattus norvegicus, po) was determined as 25.6%. The compound further came in with an LD50 in data set [2] of 2100 mg/kg.

The values are drawn from patent US4767767A, “2-pyrrolidinylethyl-2-(7-trifluoromethyl-4-quinolyl-aminobenzoate having analgesic, antipyretic and anti-inflammatory activities” (Ferrer Internacional S.A., priority 1982, dated 1988).
